For 20 compounds, IC50 results are on record in patent publication US7618960B2, “Morpholine type cinnamide compound” (Eisai R&D Management Co., Ltd., priority 2005, dated 2009).

The test concerns Aβ42 production. Nature of the test: Quantification of Aβ peptide in culture of neurons from rat fetus brain (Aβ ELISA). To be noted: rat primary neuronal culture (cerebral cortex, embryonic day 18 Wistar rats), medium collected three days after addition of compound, Aβx-42 ELISA, read-out: Activity for reducing Aβ42 production IC50. The format is cell-based. The method, then: Quantification of Aβ Peptide in Culture of Neurons from Rat Fetus Brain
(1) Rat Primary Neuronal Culture
Primary neuronal cultures were prepared from the cerebral cortex of embryonic day 18 Wistar rats (Charles River Japan, Yokohama, Japan). Specifically, the embryos were aseptically removed from pregnant rats under ether anesthesia. The brain was isolated from the embryo and immersed in an ice-cold L-15 medium (Invitrogen Corp. Cat #11415-064, Carlsbad, Calif., USA, or SIGMA L1518, for example). The cerebral cortex was collected from the isolated brain under a stereoscopic microscope. The cerebral cortex fragments collected were enzymatically treated in an enzyme solution containing 0.25% trypsin (Invitrogen Corp. Cat #15050-065, Carlsbad, Calif., USA) and 0.01% DNase (Sigma D5025, St. Louis, Mo., USA) at 37° C. for 30 minutes to disperse the cells. Here, the enzymatic reaction was stopped by adding inactivated horse serum to the solution. The enzymatically treated solution was centrifuged at 1,500 rpm for five minutes to remove the supernatant. 5 to 10 ml of a medium was added to the resulting cell mass. Neurobasal medium (Invitrogen Corp. Cat #21103-049, Carlsbad, Calif., USA) supplemented with 2% B27 supplement (Invitrogen Corp. Cat #17504-044, Carlsbad, Calif., USA), 25 μM 2-mercaptoethanol (2-ME, WAKO Cat #139-06861, Osaka, Japan), 0.5 mM L-glutamine (Invitrogen Corp. Cat #25030-081, Carlsbad, Calif., USA), and Antibiotics-Antimycotics (Invitrogen Corp. Cat #15240-062, Carlsbad, Calif., USA) was used as the medium (Neurobasal/B27/2-ME). However, the above Neurobasal medium not supplemented with 2-ME (Neurobasal/B27) was used for the assay. The cells were redispersed by mild pipetting of the cell mass to which the medium was added. The cell dispersion was filtered through a 40-μm nylon mesh (Cell Strainer, Cat #35-2340, Becton Dickinson Labware, Franklin Lakes, N.J., USA) to remove the remaining cell mass, and thus a neuronal cell suspension was obtained. The neuronal cell suspension was diluted with the medium and then plated in a volume of 100 μl/well at an initial cell density of 5×10^5 cells/cm^2 in a 96-well polystyrene culture plate pre-coated with poly-L or D-lysine (Falcon Cat #35-3075, Becton Dickinson Labware, Franklin Lakes, N.J., USA coated with poly-L-lysine using the method shown below, or BIOCOAT™ cell environments Poly-D-lysine cell ware 96-well plate, Cat #35-6461, Becton Dickinson Labware, Franklin Lakes, N.J., USA). Poly-L-lysine coating was carried out as follows. 100 μg/ml of a poly-L-lysine (SIGMA P2636, St. Louis, Mo., USA) solution was aseptically prepared with a 0.15 M borate buffer (pH 8.5). 100 μl/well of the solution was added to the 96-well polystyrene culture plate and incubated at room temperature for one or more hours or at 4° C. overnight or longer. The coated 96-well polystyrene culture plate was washed with sterile water four or more times, and then dried or rinsed with, for example, sterile PBS or medium, and used for cell plating. The plated cells were cultured in the culture plate at 37° C. in 5% […]-95% air for one day. Then, the total amount of the medium was replaced with a fresh Neurobasal™/B27/2-ME medium, and then the cells were cultured for further three days.
The drug was added to the culture plate on Day 4 of culture as follows. The total amount of the medium was removed from the wells, and 180 μl/well of Neurobasal medium not containing 2-ME and containing 2% B-27 (Neurobasal/B27) was added thereto. A solution of the test compound in dimethyl sulfoxide (hereinafter abbreviated as DMSO) was diluted with Neurobasal/B27 so that the initial concentration was at 10-fold of the final concentration. 20 μl/well of the dilution was added to and sufficiently mixed with the medium. The final DMSO concentration was 1% or less. Only DMSO was added to the control group.
The cells were cultured for three days after addition of the compound, and the total amount of the medium was collected. […]
(In an ELISA, binding on a coated surface is turned into a signal by an enzyme label.)

Where two headings read alike, the source gives them in different places.

Take `COc1cc(/C=C2\OC(C)(C)CN([C@@H](C)c3ccc(Cl)cn3)C2=O)ccc1-n1cnc(C)c1` [Example 60, (Z)-4-[(S)-1-(5-chloropyridin-2-yl)ethyl]-2-[1-[3-methoxy-4-(4-methyl-1H-imidazol-1-yl)phenyl]methylidene]-6,6-dimethylmorpholin-3-one]: the IC50 (commonly the concentration needed to halve the response being measured) (Neuron, 72 h) was determined as 96 nM.
Still for that read-out and setting: as for `COc1cc(/C=C2\O[C@@H](C)CN(C(C)(C)c3ccc(F)cc3)C2=O)ccc1-n1cnc(C)c1` [Example 38, (Z)-(6S)-4-[1-(4-fluorophenyl)-1-methylethyl]-2-[1-[3-methoxy-4-(4-methyl-1H-imidazol-1-yl)phenyl]methylidene]-6-methylmorpholin-3-one], the figure is 52 nM.
`COc1cc(/C=C2\OCCN([C@@H](C)c3cc(F)c(F)c(F)c3)C2=O)ccc1-n1cnc(C)c1` [Example 10, (Z)-2-[1-[3-methoxy-4-(4-methyl-1H-imidazol-1-yl)phenyl]methylidene]-4-[(S)-1-(3,4,5-trifluorophenyl)ethyl]morpholin-3-one]: the IC50 (Neuron, 72 h) came out at 84 nM.
Take `COc1cc(/C=C2\OC[C@H]3CCC[C@@H](c4ccc(F)cc4)N3C2=O)ccc1-n1cnc(C)c1` [Example 16]: the IC50 is 201 nM.
Take `COc1cc(/C=C2\O[C@@H](C)CN([C@](C)(CO)c3cc(F)c(F)c(F)c3)C2=O)ccc1-n1cnc(C)c1` [Example 36, (Z)-(S)-4-[(S)-2-hydroxy-1-methyl-1-(3,4,5-trifluorophenyl)ethyl]-2-[1-[3-methoxy-4-(4-methyl-1H-imidazol-1-yl)phenyl]methylidene]-6-methylmorpholin-3-one]: for the setting “Neuron, 72 h”, the IC50 was determined as 109 nM.
Turning to `COc1cc(/C=C2\OC(C)(C)CN([C@@H](C)c3ccc(F)nc3F)C2=O)ccc1-n1cnc(C)c1` [Example 55, (Z)-4-[(S)-1-(2,6-difluoropyridin-3-yl)ethyl]-2-[1-[3-methoxy-4-(4-methyl-1H-imidazol-1-yl)phenyl]methylidene]-6,6-dimethylmorpholin-3-one], where the note is “Neuron, 72 h”, the IC50 worked out at 111 nM.
Same read-out and setting: as for `Cc1cn(-c2ccc(/C=C3\OC(C)(C)CN([C@H](c4cc(F)c(F)c(F)c4)[C@@H](C)O)C3=O)cc2F)cn1` [Example 77, (Z)-2-[1-[3-fluoro-4-(4-methyl-1H-imidazol-1-yl)phenyl]methylidene]-4-[(1R,2R)-2-hydroxy-1-(3,4,5-trifluorophenyl)propyl]-6,6-dimethylmorpholin-3-one], the figure is 141 nM.
In the case of `Cc1cn(-c2ccc(/C=C3\C[C@H](C)CN([C@H](c4cc(F)c(F)c(F)c4)[C@@H](C)O)C3=O)cc2F)cn1` [Example 84, (E)-(S)-3-{1-[3-fluoro-4-(4-methyl-1H-imidazol-1-yl)phenyl]methylidene}-1-[(1R,2R)-2-hydroxy-1-(3,4,5-trifluorophenyl)propyl]-5-methylpiperidin-2-one], the IC50 (Neuron, 72 h) worked out at 37 nM.
Same read-out and setting: as for `COc1cc(/C=C2\O[C@@H](C)CN(C3(c4ccc(F)cc4)CC3)C2=O)ccc1-n1cnc(C)c1` [Example 39, (Z)-(6S)-4-[1-(4-fluorophenyl)cyclopropyl]-2-[1-[3-methoxy-4-(4-methyl-1H-imidazol-1-yl)phenyl]methylidene]-6-methylmorpholin-3-one], the figure is 130 nM; as for `COc1cc(/C=C2\O[C@H](C)CN([C@H](c3cc(F)c(F)c(F)c3)[C@@H](C)O)C2=O)ccc1-n1cnc(C)c1` [Example 29, (Z)-(6R)-4-[(1R,2R)-2-hydroxy-1-(3,4,5-trifluorophenyl)propyl]-2-[1-[3-methoxy-4-(4-methyl-1H-imidazol-1-yl)phenyl]methylidene]-6-methylmorpholin-3-one], 23 nM.
Take `COc1cc(/C=C2\O[C@@H](C)CN([C@@H](C)c3ccc(Cl)nc3)C2=O)ccc1-n1cnc(C)c1` [Example 18, (Z)-(S)-4-[(S)-1-(6-chloropyridin-3-yl)ethyl]-2-[1-[3-methoxy-4-(4-methyl-1H-imidazol-1-yl)phenyl]methylidene]-6-methylmorpholin-3-one]: the IC50 (Neuron, 72 h) was found to be 183 nM.
On the same count and under the same terms, as for `COc1cc(/C=C2\OC(C)(C)CN([C@@H](C)c3ccnc(Cl)c3)C2=O)ccc1-n1cnc(C)c1` [Example 54, (Z)-4-[(S)-1-(2-chloropyridin-4-yl)ethyl]-2-[1-[3-methoxy-4-(4-methyl-1H-imidazol-1-yl)phenyl]methylidene]-6,6-dimethylmorpholin-3-one], the figure is 74 nM.
As to `COc1cc(/C=C2\OC[C@H]3COC[C@@H](c4cc(F)c(F)c(F)c4)N3C2=O)ccc1-n1cnc(C)c1` [Example 108, (6R,9aR)-3-{1-[3-methoxy-4-(4-methyl-1H-imidazol-1-yl)phenyl]-(Z)-methylidene}-6-(3,4,5-trifluorophenyl)tetrahydro[1,4]oxazino[3,4-c][1,4]oxazin-4-one], the IC50 (Neuron, 72 h) stood at 60 nM.
Consider `COc1cc(/C=C2\OC(C)(C)CN([C@@H](C)c3ccnc(F)c3F)C2=O)ccc1-n1cnc(C)c1` [Example 58, (Z)-4-[(S)-1-(2,3-difluoropyridin-4-yl)ethyl]-2-[1-[3-methoxy-4-(4-methyl-1H-imidazol-1-yl)phenyl]methylidene]-6,6-dimethylmorpholin-3-one], for which the IC50 (Neuron, 72 h) came out at 67 nM.
The same measure, in the same setting: as for `COc1cc(/C=C2\OC(C)(C)CN([C@H](c3ccc(F)cc3)[C@@H](C)O)C2=O)ccc1-n1cnc(C)c1` [Example 33, (Z)-4-[(1R,2R)-1-(4-fluorophenyl)-2-hydroxypropyl]-2-[1-[3-methoxy-4-(4-methyl-1H-imidazol-1-yl)phenyl]methylidene]-6,6-dimethylmorpholin-3-one], the figure is 63 nM.
Same read-out and setting: as for `COc1cc(/C=C2\O[C@@H](C)CN(Cc3ccc(F)c(F)c3F)C2=O)ccc1-n1cnc(C)c1` [Example 5, (Z)-(S)-2-[1-[3-methoxy-4-(4-methyl-1H-imidazol-1-yl)phenyl]methylidene]-6-methyl-4-(2,3,4-trifluorobenzyl)morpholin-3-one], the figure is 125 nM; as for `COc1cc(/C=C2\O[C@@H](C)CN([C@@H](C)c3ccnc(Cl)c3)C2=O)ccc1-n1cnc(C)c1` [Example 51, (Z)-(S)-4-[(S)-1-(2-chloropyridin-4-yl)ethyl]-2-[1-[3-methoxy-4-(4-methyl-1H-imidazol-1-yl)phenyl]methylidene]-6-methylmorpholin-3-one], 67 nM.
Still for that read-out and setting: the same measure for `COc1cc(/C=C2\O[C@@H](C)CN([C@H](c3ccc(F)c(F)c3)[C@@H](C)O)C2=O)ccc1-n1cnc(C)c1` [Example 34, (Z)-(S)-4-[(1R,2R)-1-(3,4-difluorophenyl)-2-hydroxypropyl]-2-[1-[3-methoxy-4-(4-methyl-1H-imidazol-1-yl)phenyl]methylidene]-6-methylmorpholin-3-one]: 23 nM; for `COc1cc(/C=C2\O[C@@H](C)CN([C@H](C)c3ccc(F)nc3F)C2=O)ccc1-n1cnc(C)c1` [Example 23, (Z)-(S)-4-[(R)-1-(2,6-difluoropyridin-3-yl)ethyl]-2-[1-[3-methoxy-4-(4-methyl-1H-imidazol-1-yl)phenyl]methylidene]-6-methylmorpholin-3-one]: 130 nM.
For the compound `COc1cc(/C=C2\O[C@H](C)CN([C@@H](C)c3ccc(F)cc3)C2=O)ccc1-n1cnc(C)c1` [Example 8, (Z)-(R)-4-[(S)-1-(4-fluorophenyl)ethyl]-2-[1-[3-methoxy-4-(4-methyl-1H-imidazol-1-yl)phenyl]methylidene]-6-methylmorpholin-3-one], the half-maximal inhibitory concentration (IC50) (Neuron, 72 h) is 113 nM.
